Data as given in PMC4578337, “New depsidones and isoindolinones from the mangrove endophytic fungus Meyerozyma guilliermondii (HZ-Y2) isolated from the South China Sea” (Beilstein Journal of Organic Chemistry, 2015).

What was measured:
[1] = molecular target: T1, α-glucosidase (Saccharomyces cerevisiae, UniProt P53341); assay: kinetic analysis of the inhibition of α-glucosidase; format: biochemical; conditions: Figure 4
Protocol: (§1) Biological assays. The assays for α-glucosidase and MptpB inhibition inhibitory activities were carried out as described previously.

[2] = molecular target: T1, α-glucosidase; assay: α-glucosidase inhibitory activity assay; format: biochemical; conditions: qualitative statement
Protocol: as §1

T1 sequence (P53341 whole entry): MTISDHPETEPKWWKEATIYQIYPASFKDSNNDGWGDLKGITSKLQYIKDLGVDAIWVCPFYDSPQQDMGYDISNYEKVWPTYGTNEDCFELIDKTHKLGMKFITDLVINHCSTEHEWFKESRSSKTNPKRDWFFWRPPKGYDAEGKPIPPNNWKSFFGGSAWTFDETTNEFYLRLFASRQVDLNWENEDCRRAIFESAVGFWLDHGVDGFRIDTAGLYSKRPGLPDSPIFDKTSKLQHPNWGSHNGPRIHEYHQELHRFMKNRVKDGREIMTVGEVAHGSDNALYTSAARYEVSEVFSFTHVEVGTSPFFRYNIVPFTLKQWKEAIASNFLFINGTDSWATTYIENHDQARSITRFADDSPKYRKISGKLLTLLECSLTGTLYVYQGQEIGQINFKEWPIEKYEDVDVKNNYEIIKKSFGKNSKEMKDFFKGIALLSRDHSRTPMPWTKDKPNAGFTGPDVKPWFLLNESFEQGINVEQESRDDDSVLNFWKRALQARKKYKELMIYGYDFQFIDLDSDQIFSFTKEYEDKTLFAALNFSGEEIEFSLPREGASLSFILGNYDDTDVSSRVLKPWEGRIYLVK

SMILES | type of α-glucosidase inhibition (kinetic studies) [1] | α-glucosidase inhibitory activity (in words) [2]
Cc1cc(O)c(C)c2c1Oc1c(O)c(O)cc(C)c1C(=O)O2 [Compound 2, Botryorhodine F] | noncompetitive inhibitors | –
Cc1cc(O)cc2c1Oc1c(CO)c(O)cc(C)c1C(=O)O2 [Compound 6, botryorhodine D] | noncompetitive inhibitors | –
O=C(O)CCCCN1Cc2c(O)cc(O)cc2C1=O [Compound 7, Meyeroguilline A] | – | promising α-glucosidase inhibitory activity
O=C1NCc2c(O)cc(O)cc21 [Compound 8, 4,6-dihydroxy-2,3-dihydro-1H-isoindol-1-one] | – | moderate to weak activities
O=C1NC(=O)c2c(O)cc(O)cc21 [Compound 10, 4,6-dihydroxy-1H-isoindole-1,3(2H)-dione] | – | moderate to weak activities
